# Like-named read-outs stand apart in the source and are kept apart here. Where a SMILES comes first, the peptide text is derived from it. Where no end group is shown, it is not given here.
# Tests used:
# [1] = target: dipeptidyl peptidase IV (UniProt P27487)
# [2] = target: T1, DPP-IV (Homo sapiens, UniProt P27487); test: DPP-IV inhibitory activity of peptides (DPP-IV-Glo Protease Assay Kit); type: biochemical; design: purchased QiZheng Biotech (Shanghai, China) IBDPP0901; conditions: for DPP-IV inhibitory activity: DPP-IV-Glo Protease Assay Kit, control = 0, in % (unit assumed)
# Target sequence in this assay (P27487 whole entry): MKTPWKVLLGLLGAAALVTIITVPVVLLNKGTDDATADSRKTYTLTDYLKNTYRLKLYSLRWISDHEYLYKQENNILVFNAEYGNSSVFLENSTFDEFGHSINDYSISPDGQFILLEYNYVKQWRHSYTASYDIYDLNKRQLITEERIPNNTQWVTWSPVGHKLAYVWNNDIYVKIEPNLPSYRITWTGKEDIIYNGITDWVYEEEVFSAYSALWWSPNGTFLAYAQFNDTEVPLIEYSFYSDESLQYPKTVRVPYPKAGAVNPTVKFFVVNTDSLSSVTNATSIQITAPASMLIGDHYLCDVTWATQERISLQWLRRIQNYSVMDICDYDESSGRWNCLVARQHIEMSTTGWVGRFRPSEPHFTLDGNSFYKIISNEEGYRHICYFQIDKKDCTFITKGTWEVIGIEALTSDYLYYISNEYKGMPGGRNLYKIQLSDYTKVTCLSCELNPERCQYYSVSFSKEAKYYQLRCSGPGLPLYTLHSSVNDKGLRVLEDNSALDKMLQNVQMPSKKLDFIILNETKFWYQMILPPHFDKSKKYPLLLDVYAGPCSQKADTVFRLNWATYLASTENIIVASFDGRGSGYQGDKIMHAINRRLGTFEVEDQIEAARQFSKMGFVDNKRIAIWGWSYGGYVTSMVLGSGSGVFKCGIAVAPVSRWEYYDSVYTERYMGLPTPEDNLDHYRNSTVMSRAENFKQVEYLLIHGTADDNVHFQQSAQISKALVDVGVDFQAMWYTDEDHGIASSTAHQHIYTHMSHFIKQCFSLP
# [3] = target: T1, DPP-IV; test: Surface plasmon resonance (Biacore 8K, CM5 chip, 25 °C); type: binding; design: purchased QiZheng Biotech (Shanghai, China) IBDPP0901
# [4] = Simulated digestive stability of peptides (pepsase then trypsase); type: in vitro ADME, porcine; conditions: pig, relative to basal 100, sheet S2H; for remaining at 4 h, 5 mg/mL: pH 7, simulated digestion, after pepsase then trypsase, read-out: Peptide remaining, Trypsase; for remaining at 2 h, 5 mg/mL: porcine pepsase (simulated gastric digestion), pH 3, simulated digestion, after porcine pepsase, read-out: Peptide remaining, Pepsase
# Description: The in vitro digestibility of the peptides was determined according to the method described by Ohanenye et al. with some modifications. Briefly, 5.0 mg/mL peptides were mixed with 5000 U/mL porcine pepsase (pH 3.0). The mixture was incubated with continuous shaking in a water bath at 37 ℃ for 2 h. Then, the mixture was adjusted to pH 7.0, and a final concentration of 100 U/mL trypsase was added, followed by continuous shaking at 37 ℃ for another 2 h. After digestion, the enzyme was inactivated, and the mixture was incubated in a water bath (100 ℃) for 20 min. Subsequently, the mixture was centrifuged at 6000 rpm for 20 min, after which the supernatants were collected for further analysis. The concentrations of peptides in the digestions and TPH were determined via AB SCIEX QTrap 6600+ (AB Sciex, Framingham, Massachusetts).
# [5] = SPR, Table S3, read-out: KD values
# Sequence of dipeptidyl peptidase IV (P27487 41-765): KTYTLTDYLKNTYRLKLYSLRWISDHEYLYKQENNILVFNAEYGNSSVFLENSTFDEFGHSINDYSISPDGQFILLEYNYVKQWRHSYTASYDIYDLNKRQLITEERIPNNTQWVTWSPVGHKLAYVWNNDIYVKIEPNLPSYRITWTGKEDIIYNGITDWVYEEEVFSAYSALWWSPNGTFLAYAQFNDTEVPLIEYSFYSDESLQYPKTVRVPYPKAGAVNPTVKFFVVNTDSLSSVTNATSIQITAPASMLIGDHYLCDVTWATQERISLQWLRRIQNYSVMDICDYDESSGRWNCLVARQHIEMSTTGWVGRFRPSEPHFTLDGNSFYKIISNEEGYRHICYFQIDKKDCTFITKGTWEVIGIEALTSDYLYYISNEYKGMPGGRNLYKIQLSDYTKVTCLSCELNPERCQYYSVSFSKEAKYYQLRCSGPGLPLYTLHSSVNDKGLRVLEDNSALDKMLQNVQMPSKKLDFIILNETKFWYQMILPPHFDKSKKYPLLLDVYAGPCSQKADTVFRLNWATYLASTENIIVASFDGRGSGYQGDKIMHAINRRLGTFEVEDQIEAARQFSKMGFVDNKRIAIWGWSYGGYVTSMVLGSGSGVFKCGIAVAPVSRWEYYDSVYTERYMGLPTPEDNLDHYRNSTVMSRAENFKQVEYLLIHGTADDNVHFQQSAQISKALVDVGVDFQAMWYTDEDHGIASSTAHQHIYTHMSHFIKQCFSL
molecule,measurement,setting,value
FQL (peptide),IC50 of inhibition of DPP-IV activity in vitro,[1],970 µM
FLQ (peptide),IC50 of inhibition of DPP-IV activity in vitro,[1],4130 µM
FNPRG [FNPRG],IC50,[2],40500 µM
same,DPP-IV inhibitory activity,"[2]; replicate 1, […]",47.4625
same,DPP-IV inhibitory activity,"[2]; replicate 2, […]",43.5702
same,DPP-IV inhibitory activity,"[2]; replicate 3, […]",43.4293
N[C@@H](Cc1c[nH]c2ccccc12)C(=O)N[C@@H](CC(=O)O)C(=O)N[C@@H](CO)C(=O)N[C@@H](Cc1ccc(O)cc1)C(=O)O [WDSY] (H-WDSY-OH),DPP-IV inhibitory activity,"[2]; replicate 1, sheet S2F",82.2499
same,DPP-IV inhibitory activity,"[2]; replicate 2, sheet S2F",85.4257
same,DPP-IV inhibitory activity,"[2]; replicate 3, sheet S2F",81.38
same,IC50,"[2]; Table S3, read-out: IC50",630 µM
PSSQQ [PSSQQ],IC50,[2],730 µM
same,DPP-IV inhibitory activity,"[2]; replicate 1, […]",8.036
same,DPP-IV inhibitory activity,"[2]; replicate 2, […]",8.558
same,DPP-IV inhibitory activity,"[2]; replicate 3, […]",22.2643
same,Kd,[3],37000 µM
CC(C)C[C@H](NC(=O)[C@@H](N)Cc1c[nH]c2ccccc12)C(=O)N[C@@H](CCC(=O)O)C(=O)O [WLE] (H-Trp-Leu-Glu-OH),DPP-IV inhibitory activity,"[2]; replicate 1, sheet S2F",21.3239
same,DPP-IV inhibitory activity,"[2]; replicate 2, sheet S2F",16.4075
same,DPP-IV inhibitory activity,"[2]; replicate 3, sheet S2F",17.3019
same,IC50,"[2]; Table S3, read-out: IC50",2400 µM
CC(C)C[C@H](NC(=O)[C@H](CCC(N)=O)NC(=O)[C@@H](N)Cc1ccc(O)cc1)C(=O)O [YQL] (H-Tyr-Gln-Leu-OH),DPP-IV inhibitory activity,"[2]; replicate 1, […]",20.7988
same,DPP-IV inhibitory activity,"[2]; replicate 2, […]",21.5571
same,DPP-IV inhibitory activity,"[2]; replicate 3, […]",29.5286
same,IC50,"[2]; Table S3, read-out: IC50",280 µM
LLY (peptide),IC50 of inhibition of DPP-IV activity in vitro,[1],830 µM
PQNHA [PQNHA],IC50,[2],24600 µM
same,DPP-IV inhibitory activity,"[2]; replicate 1, […]",27.665
same,DPP-IV inhibitory activity,"[2]; replicate 2, […]",17.6559
same,DPP-IV inhibitory activity,"[2]; replicate 3, […]",16.9893
CC(C)C[C@H](NC(=O)[C@@H](N)Cc1ccccc1)C(=O)N[C@@H](CCC(N)=O)C(=O)O [FLQ] (H-Phe-Leu-Gln-OH),DPP-IV inhibitory activity,"[2]; replicate 1, sheet S2F",25.2277
same,DPP-IV inhibitory activity,"[2]; replicate 2, sheet S2F",32.7776
same,DPP-IV inhibitory activity,"[2]; replicate 3, sheet S2F",32.9911
same,IC50,"[2]; Table S3, read-out: IC50",4130 µM
FDGEL [FDGEL],IC50,[2],45100 µM
same,DPP-IV inhibitory activity,"[2]; replicate 1, […]",28.637
same,DPP-IV inhibitory activity,"[2]; replicate 2, […]",26.7775
same,DPP-IV inhibitory activity,"[2]; replicate 3, […]",19.1292
YNL (peptide),IC50 of inhibition of DPP-IV activity in vitro,[1],140 µM
CC(C)C[C@H](NC(=O)[C@H](CC(N)=O)NC(=O)[C@@H](N)Cc1ccc(O)cc1)C(=O)O [YNL] (H-Tyr-Asn-Leu-OH),DPP-IV inhibitory activity,"[2]; replicate 1, […]",24.2295
same,DPP-IV inhibitory activity,"[2]; replicate 2, […]",23.675
same,DPP-IV inhibitory activity,"[2]; replicate 3, […]",21.7871
same,IC50,"[2]; Table S3, read-out: IC50",140 µM
C[C@@H](O)[C@H](NC(=O)[C@@H](N)Cc1ccc(O)cc1)C(=O)NCC(=O)N[C@@H](CC(=O)O)C(=O)O [YTGD] (H-YTGD-OH),DPP-IV inhibitory activity,"[2]; replicate 1, sheet S2F",20.1405
same,DPP-IV inhibitory activity,"[2]; replicate 2, sheet S2F",15.5931
same,DPP-IV inhibitory activity,"[2]; replicate 3, sheet S2F",21.6532
same,IC50,"[2]; Table S3, read-out: IC50",320 µM
same,Kd,[3]; [5],100 µM
C[C@H](NC(=O)[C@H](Cc1ccc(O)cc1)NC(=O)[C@H](CO)NC(=O)[C@@H](N)Cc1ccc(O)cc1)C(=O)O [YSYA] (H-YSYA-OH),DPP-IV inhibitory activity,"[2]; replicate 1, sheet S2F",27.0679
same,DPP-IV inhibitory activity,"[2]; replicate 2, sheet S2F",29.9267
same,DPP-IV inhibitory activity,"[2]; replicate 3, sheet S2F",30.8304
same,IC50,"[2]; Table S3, read-out: IC50",410 µM
same,Kd,[3]; [5],5.54 µM
same,"remaining at 4 h, 5 mg/mL",[4]; replicate 1,3.01%
same,"remaining at 4 h, 5 mg/mL",[4]; replicate 2,3.24%
same,"remaining at 4 h, 5 mg/mL",[4]; replicate 3,4.18%
same,"remaining at 2 h, 5 mg/mL",[4]; replicate 1,17.8%
same,"remaining at 2 h, 5 mg/mL",[4]; replicate 2,17.7%
same,"remaining at 2 h, 5 mg/mL",[4]; replicate 3,15.2%
YTPHW [YTPHW],DPP-IV inhibitory activity,"[2]; replicate 1, […]",18.6094
same,DPP-IV inhibitory activity,"[2]; replicate 2, […]",9.79
same,DPP-IV inhibitory activity,"[2]; replicate 3, […]",21.0526
same,IC50,"[2]; Table S3, read-out: IC50",7110 µM
CC(C)C[C@H](N)C(=O)N[C@@H](CC(N)=O)C(=O)N[C@@H](C)C(=O)N1CCC[C@H]1C(=O)O [LNAP] (H-LNAP-OH),DPP-IV inhibitory activity,"[2]; replicate 1, sheet S2F",13.9411
same,DPP-IV inhibitory activity,"[2]; replicate 2, sheet S2F",16.0533
same,DPP-IV inhibitory activity,"[2]; replicate 3, sheet S2F",12.0865
same,IC50,"[2]; Table S3, read-out: IC50",590 µM
CC(C)[C@H](N)C(=O)N[C@@H](C)C(=O)N[C@@H](CC(=O)O)C(=O)N[C@@H](Cc1c[nH]c2ccccc12)C(=O)O [VADW] (H-VADW-OH),DPP-IV inhibitory activity,"[2]; replicate 1, sheet S2F",63.2506
same,DPP-IV inhibitory activity,"[2]; replicate 2, sheet S2F",57.5085
same,DPP-IV inhibitory activity,"[2]; replicate 3, sheet S2F",57.0946
same,IC50,"[2]; Table S3, read-out: IC50",350 µM
same,Kd,[3]; [5],14 µM
same,"remaining at 4 h, 5 mg/mL",[4]; replicate 1,9.2%
same,"remaining at 4 h, 5 mg/mL",[4]; replicate 2,9.52%
same,"remaining at 4 h, 5 mg/mL",[4]; replicate 3,7.78%
same,"remaining at 2 h, 5 mg/mL",[4]; replicate 1,12.2%
same,"remaining at 2 h, 5 mg/mL",[4]; replicate 2,14.3%
same,"remaining at 2 h, 5 mg/mL",[4]; replicate 3,10.4%
WLE (peptide),IC50 of inhibition of DPP-IV activity in vitro,[1],2400 µM
CSCC[C@H](NC(=O)[C@H](CC(C)C)NC(=O)[C@H](CCC(N)=O)NC(=O)[C@@H](N)Cc1ccc(O)cc1)C(=O)O [YQLM] (H-YQLM-OH),DPP-IV inhibitory activity,"[2]; replicate 1, sheet S2F",41.3327
same,DPP-IV inhibitory activity,"[2]; replicate 2, sheet S2F",38.0136
same,DPP-IV inhibitory activity,"[2]; replicate 3, sheet S2F",34.538
same,IC50,"[2]; Table S3, read-out: IC50",650 µM
same,Kd,[3]; [5],25.4 µM
same,"remaining at 4 h, 5 mg/mL",[4]; replicate 1,14.3%
same,"remaining at 4 h, 5 mg/mL",[4]; replicate 2,12.7%
same,"remaining at 4 h, 5 mg/mL",[4]; replicate 3,9.83%
same,"remaining at 2 h, 5 mg/mL",[4]; replicate 2,14.7%
same,"remaining at 2 h, 5 mg/mL",[4]; replicate 3,15%
PSSQQ (peptide),IC50 of inhibition of DPP-IV activity in vitro,[1],730 µM
CC(C)C[C@H](NC(=O)[C@H](CCC(N)=O)NC(=O)[C@@H](N)Cc1ccccc1)C(=O)O [FQL] (H-Phe-Gln-Leu-OH),DPP-IV inhibitory activity,"[2]; replicate 1, sheet S2F",25.4694
same,DPP-IV inhibitory activity,"[2]; replicate 2, sheet S2F",22.9016
same,DPP-IV inhibitory activity,"[2]; replicate 3, sheet S2F",15.9024
same,IC50,"[2]; Table S3, read-out: IC50",970 µM
FNVDSE [FNVDSE],IC50,[2],84000 µM
same,DPP-IV inhibitory activity,"[2]; replicate 1, […]",14.7737
same,DPP-IV inhibitory activity,"[2]; replicate 2, […]",13.6123
same,DPP-IV inhibitory activity,"[2]; replicate 3, […]",13.4568
YQL (peptide),IC50 of inhibition of DPP-IV activity in vitro,[1],280 µM
VFTPQ [VFTPQ],IC50,[2],18500 µM
same,DPP-IV inhibitory activity,"[2]; replicate 1, […]",17.5527
same,DPP-IV inhibitory activity,"[2]; replicate 2, […]",15.1374
same,DPP-IV inhibitory activity,"[2]; replicate 3, […]",15.1911
WIAVK [WIAVK],IC50,[2],600 µM
same,DPP-IV inhibitory activity,"[2]; replicate 1, […]",55.8181
same,DPP-IV inhibitory activity,"[2]; replicate 2, […]",53.6066
same,DPP-IV inhibitory activity,"[2]; replicate 3, […]",51.0205
VFTPQ,IC50 of inhibition of DPP-IV activity in vitro,[1],18500 µM
WNVN,IC50 of inhibition of DPP-IV activity in vitro,[1],150 µM
WIAVK,IC50 of inhibition of DPP-IV activity in vitro,[1],600 µM
YTPHW,IC50 of inhibition of DPP-IV activity in vitro,[1],7110 µM
YSYA,IC50 of inhibition of DPP-IV activity in vitro,[1],410 µM
YTGD,IC50 of inhibition of DPP-IV activity in vitro,[1],320 µM
YQLM,IC50 of inhibition of DPP-IV activity in vitro,[1],650 µM
FDGEL,IC50 of inhibition of DPP-IV activity in vitro,[1],45100 µM
PQNHA,IC50 of inhibition of DPP-IV activity in vitro,[1],24600 µM
LNAP,IC50 of inhibition of DPP-IV activity in vitro,[1],590 µM
VADW,IC50 of inhibition of DPP-IV activity in vitro,[1],350 µM
YNLP,IC50 of inhibition of DPP-IV activity in vitro,[1],510 µM
WDSY,IC50 of inhibition of DPP-IV activity in vitro,[1],630 µM
VAMP,IC50 of inhibition of DPP-IV activity in vitro,[1],1 µM
FNPRG,IC50 of inhibition of DPP-IV activity in vitro,[1],40500 µM
FNVDSE,IC50 of inhibition of DPP-IV activity in vitro,[1],84000 µM
FPQS,IC50 of inhibition of DPP-IV activity in vitro,[1],350 µM

# Reference: paper PMC12527977, “Discovery of a novel tetrapeptide as glucose homeostasis modulator with bifunctionalities of targeting DPP‐IV and microbiota” (iMeta, 2025)
